Experimental data reported in PubChem BioAssay AID256 (DTP/NCI, 2004).
Toxic doses and inconclusive results are not listed. How the source made its calls: active means survival T/C of 150% or more; inactive means T/C below 125% in these data.

Tested on: CD2F1 mice, L1210 leukemia ip, survival T/C
Assay: NCI In Vivo Anticancer Drug Screen. Data for tumor model L1210 Leukemia (intraperitoneal) in CD2F1 (CDF1) mice
Conditions: endpoint: mean survival time, higher = longer survival
Summary of the method: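 Mice carrying a transplanted tumor received test compound or vehicle alone. The value is the measurement in the treated group divided by that in the vehicle-treated control group.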

[1] = dose: 100.0 mg/kg/injection, schedule: Q04DX002 (ip), vehicle: saline with Tween-80
[2] = dose: 200.0 mg/kg/injection, schedule: Q04DX002 (ip), vehicle: saline with Tween-80
[3] = dose: 400.0 mg/kg/injection, schedule: Q04DX002 (ip), vehicle: saline with Tween-80
[4] = dose: 100.0 mg/kg/injection, schedule: Q01DX009 (ip), vehicle: saline with Tween-80
[5] = dose: 100.0 mg/kg/injection, schedule: Q04DX003 (ip), vehicle: saline with Tween-80
[6] = dose: 200.0 mg/kg/injection, schedule: Q04DX003 (ip), vehicle: saline with Tween-80
[7] = dose: 400.0 mg/kg/injection, schedule: Q04DX003 (ip), vehicle: saline with Tween-80
[8] = dose: 200.0 mg/kg/injection, schedule: Q01DX009 (ip), vehicle: saline with Tween-80
[9] = dose: 400.0 mg/kg/injection, schedule: Q01DX009 (ip), vehicle: saline with Tween-80

Measured: T/C

O=[N+]([O-])Nc1ccc(C(c2ccc(N[N+](=O)[O-])cc2)c2ccc([N+](=O)[O-])cc2)cc1
inactive: [1] 95 % of control | [2] 88 % of control | [3] 88 % of control

BrCC[Se]c1ccccc1
inactive: dose: 3.12 mg/kg/injection, schedule: Q01DX009 (ip), vehicle: saline with Tween-80 105 % of control | dose: 6.25 mg/kg/injection, schedule: Q01DX009 (ip), vehicle: saline with Tween-80 111 % of control | dose: 12.5 mg/kg/injection, schedule: Q01DX009 (ip), vehicle: saline with Tween-80 102 % of control | dose: 25.0 mg/kg/injection, schedule: Q01DX009 (ip), vehicle: saline with Tween-80 115 % of control | dose: 50.0 mg/kg/injection, schedule: Q01DX009 (ip), vehicle: saline with Tween-80 107 % of control | [4] 104 % of control

CCC(CNCCC(=O)O)(C(=O)O)C(=O)O
inactive: [1] 98 % of control | [2] 98 % of control | [3] 90 % of control

COc1ccc(/C=C(/C#N)c2ccccc2)cc1
inactive: [5] 95 % of control | [6] 93 % of control | [7] 90 % of control

COC(=O)COS(=O)(=O)c1ccc(C)cc1
inactive: dose: 100.0 mg/kg/injection, schedule: Q01DX001 (ip), vehicle: saline with Tween-80 95 % of control | dose: 200.0 mg/kg/injection, schedule: Q01DX001 (ip), vehicle: saline with Tween-80 96 % of control | dose: 400.0 mg/kg/injection, schedule: Q01DX001 (ip), vehicle: saline with Tween-80 100 % of control

Cc1cn(C2CC3[O][Sn]([CH3])([CH3])[O]CC3O2)c(=O)[nH]c1=O (stereo not drawn)
inactive: dose: 12.5 mg/kg/injection, schedule: Q01DX005 (ip), vehicle: other 105 % of control | dose: 25.0 mg/kg/injection, schedule: Q01DX005 (ip), vehicle: other 108 % of control | dose: 50.0 mg/kg/injection, schedule: Q01DX005 (ip), vehicle: other 103 % of control

CC1(C)N=C(N)N=C(N)N1c1ccc(CCC(=O)Nc2ccc(S(=O)(=O)F)cc2)c(Cl)c1
inactive: dose: 6.25 mg/kg/injection, schedule: Q01DX009 (ip), vehicle: saline 104 % of control | dose: 6.25 mg/kg/injection, schedule: Q01DX009 (ip), vehicle: water 112 % of control | dose: 12.5 mg/kg/injection, schedule: Q01DX009 (ip), vehicle: saline 120 % of control | dose: 12.5 mg/kg/injection, schedule: Q01DX009 (ip), vehicle: water 112 % of control | dose: 25.0 mg/kg/injection, schedule: Q01DX009 (ip), vehicle: water 119 % of control | dose: 50.0 mg/kg/injection, schedule: Q01DX009 (ip), vehicle: saline 120 % of control

O=C(CC(=O)Nc1ccc([N+](=O)[O-])cc1)Nc1ccc([N+](=O)[O-])cc1
inactive: [4] 91 % of control | [8] 86 % of control | [9] 89 % of control

c1ccc(-c2nc3ccccc3s2)nc1
inactive: [5] 96 % of control | [6] 103 % of control | [7] 96 % of control

c1ccc(NC2CCN(C3(c4ccccc4)CCCCC3)CC2)cc1
inactive: dose: 25.0 mg/kg/injection, schedule: Q04DX002 (ip), vehicle: saline 97 % of control | dose: 50.0 mg/kg/injection, schedule: Q04DX002 (ip), vehicle: saline 94 % of control

CCC[CH2][Sn]1([CH2]CCC)[O]C2C(CO)OC(n3c(Br)c(C(N)=O)c4c(N)ncnc43)C2[O]1 (stereo not drawn)
inactive: dose: 1.56 mg/kg/injection, schedule: Q01DX009 (ip), vehicle: distilled water + Tween-80 100 % of control | dose: 3.13 mg/kg/injection, schedule: Q01DX009 (ip), vehicle: distilled water + Tween-80 107 % of control

Cc1cccc[n+]1CCC(N)=O
inactive: dose: 6.25 mg/kg/injection, schedule: Q04DX003 (ip), vehicle: saline 96 % of control | dose: 12.5 mg/kg/injection, schedule: Q04DX003 (ip), vehicle: saline 88 % of control | dose: 25.0 mg/kg/injection, schedule: Q04DX003 (ip), vehicle: saline 91 % of control

CCCCN(CCCC)CCC(=O)OCC
inactive: [4] 101 % of control | [8] 95 % of control | [9] 112 % of control

Nc1nc(=S)c2ncn(C3CC(O)C(CO)C3)c2[nH]1 (stereo not drawn)
inactive: dose: 50.0 mg/kg/injection, schedule: Q01DX009 (ip), vehicle: Klucel (hydroxypropylcellulose) (HPC) 94 % of control | dose: 100.0 mg/kg/injection, schedule: Q01DX009 (ip), vehicle: Klucel (hydroxypropylcellulose) (HPC) 91 % of control | dose: 200.0 mg/kg/injection, schedule: Q01DX009 (ip), vehicle: Klucel (hydroxypropylcellulose) (HPC) 108 % of control

NNC(=S)S
inactive: dose: 5.0 mg/kg/injection, schedule: Q01DX001 (ip), vehicle: saline 96 % of control | dose: 10.0 mg/kg/injection, schedule: Q01DX001 (ip), vehicle: saline 98 % of control
